# Assay results taken from US11446290B2, “Treatment of pain with serotonin-3 receptor agonist” (priority 2017, dated 2022).
# Columns and labels:
# Assay type in all cases: in vivo
# [1] = test system: Male ddY mice; assay: Experiment 3: therapeutic effects on pain derived from an emotional component (conditioned pain, saline injection at day 4); conditions: for therapeutic effect on pain derived from an emotional component: foot licking of uninjected foot and biting for 5 minutes, FIG. 3; for therapeutic effects on pain derived from an emotional component: experiments using a similar method, dose not given
# [2] = test system: Male ddY mice; assay: Experiment 1: therapeutic effects on pain, foot licking and biting after formalin administration
# [3] = test system: Male ddY mice; assay: Experiment 4: effect on amount of activity (supermex); conditions: measured for 5 minutes after 30 minutes, FIG. 4
# Text: The following Experiments 1 to 5 have been carried out according to the method described in literatures (M Nakamura-Kitamura et al. Brain Research 1406 (2011), 8-17; and M Nakamura-Kitamura et al. Pain Research 27 (2012), 153-164) with minor modifications.
# Male ddY mice of 5 weeks old (Japan SLC) were used in the experiments. Regarding the environment context as external senses and sensory stimuli such as tactile sense, visual sense, and feeling, a black cylindrical polypropylene box (diameter: 9.5 cm, height: 7 cm, with a round petri dish having a diameter of 8.5 cm at the bottom) and a translucent polypropylene box (14 cm (length)×9.5 cm (width)×5 cm (height), with a reticular plate at the floor) were used.
# In order to study the effect of Compound A on the amount of activity, Compound A (5 mg/kg or 10 mg/kg) or vehicle (i.e., saline comprising 5% DMSO) was intraperitoneally administered to each mouse, and after 30 minutes, the amount of activity of the mouse was measured for 5 minutes using supermex (Muromachi Kikai Co., Ltd.). In the experiment, the vehicle administration group consisted of 7 mice, the Compound A (5 mg/kg) administration group consisted of 7 mice, and the Compound A (10 mg/kg) administration group consisted of 6 mice.
# [4] = test system: Male ddY mice; assay: Experiment 5: therapeutic effects on acute pain, formalin test phase 1 and phase 2; conditions: 1, 5, 10 mg/kg i.p. 30 minutes before formalin
smiles,measurement,setting,value
"NC1CCN(c2cccc(Cl)n2)CC1 [Compound A, 1-(6-chloropyridin-2-yl)piperidin-4-amine]",therapeutic effect on pain derived from an emotional component,[1]; 5 mg/kg intraperitoneally 30 minutes before saline at day 4,very strong therapeutic effect
same,therapeutic effect on pain derived from an emotional component,[1]; 10 mg/kg intraperitoneally 30 minutes before saline at day 4,very strong therapeutic effect
same,therapeutic effect on pain derived from an emotional component compared to each existing drug,"[1]; mouse, in vivo",significantly excellent therapeutic effect as compared to each existing drug
same,foot licking and biting caused by formalin,"[2]; 5 mg/kg intraperitoneally 30 minutes before formalin (0.67%, 20 μL), measured for 5 minutes, FIG. 1",significantly suppress
same,therapeutic effect on pain compared to existing drugs,"[2]; mouse, in vivo",more excellent therapeutic effect on pain as compared to the existing drugs
same,effect on the amount of activity,[3]; 5 mg/kg intraperitoneal,no effect
same,effect on the amount of activity,[3]; 10 mg/kg intraperitoneal,no effect
same,"foot licking and biting caused by formalin, phase 1","[4]; 0 to 5 minutes after formalin, FIG. 5",dose-dependently and significantly suppress
same,"foot licking and biting caused by formalin, phase 2","[4]; 5 to 30 minutes after formalin, FIG. 6",dose-dependently and significantly suppress
"Cl.N=C(N)NC(=N)Nc1cccc(Cl)c1 [Compound B, m-chlorophenylbiguanide hydrochloride]",therapeutic effects on pain derived from an emotional component,[1],showed therapeutic effects
"Cl.N=C(N)NC(=N)Nc1ccccc1 [Compound C, 1-phenylbiguanide hydrochloride]",therapeutic effects on pain derived from an emotional component,[1],showed therapeutic effects
"Cc1[nH]c2ccc(O)cc2c1CCN.Cl [Compound F, 2-methyl-5-hydroxytryptamine hydrochloride]",therapeutic effects on pain derived from an emotional component,[1],showed therapeutic effects
"Cl.Cn1cc(C(=O)C(=O)N[C@H]2CN3CCC2CC3)c2ccccc21 [G, (R)—N-(1-azabicyclo[2.2.2]oct-3-yl)-2-(1-methyl-1H-indol-3-yl)-2-(1-methyl-1H-indol-3-yl)-2-oxoacetamide hydrochloride]",therapeutic effects on pain derived from an emotional component,[1],showed therapeutic effects
